Columns and labels:
[1] = system: MDA-MB-231 human breast cancer cells; assay: MTS cell viability assay (MDA-MB-231); type: cell-based; details: folate-receptor-positive MDA-MB-231 cells
4T1 = assay: MTS cell viability assay (4T1); type: cell-based; details: Mus musculus, 4T1 cells
[2] = in vivo; cited from earlier work

Row | IC50 ([1]; Homo sapiens) | IC50 (4T1) | Compound | IC50 [1] | LD50 [2]
1 | > 100 nM | 670 nM | COCCOCCOCCOc1ccc2c(c1)C(C)=[N+]1c3ccc(C(=O)NCCN=[N+]=[N-])cc3O[B-]1([C@H](CC(C)C)NC(=O)[C@@H](Cc1ccccc1)NC(=O)c1cnccn1)O2 (stereo partly shown) [B-complex 7] |  | 
2 |  |  | COCCOCCOCCOc1ccc2c(c1)C(C)=[N+]1c3ccc(C(=O)NCCn4nnc5c4CC[C@H]4[C@@H](CC5)[C@H]4COC(=O)NCCNC(=O)CCC(NC(=O)c4ccc(NCc5cnc6nc(N)[nH]c(=O)c6n5)cc4)C(=O)O)cc3O[B-]1([C@H](CC(C)C)NC(=O)[C@@H](Cc1ccccc1)NC(=O)c1cnccn1)O2 (stereo partly shown) [B-complex 8] | 67.5 nM | 
3 | > 100 nM | 7250 nM | CC1=[N+]2c3ccc(C(=O)NCCOCCOCCOCCN=[N+]=[N-])cc3O[B-]2([C@H](CC(C)C)NC(=O)[C@@H](Cc2ccccc2)NC(=O)c2cnccn2)Oc2ccc(OCCOCCOCCOCCN=[N+]=[N-])cc21 (stereo partly shown) [B-complex 9] |  | 
4 |  |  | CC1=[N+]2c3ccc(C(=O)NCCOCCOCCOCCn4nnc5c4CCC4C(CC5)[C@@H]4COC(=O)NCCNC(=O)CC[C@H](NC(=O)c4ccc(NCc5cnc6nc(N)[nH]c(=O)c6n5)cc4)C(=O)O)cc3O[B-]2([C@H](CC(C)C)NC(=O)[C@@H](Cc2ccccc2)NC(=O)c2cnccn2)Oc2ccc(OCCOCCOCCOCCn3nnc4c3CC[C@H]3[C@@H](CC4)[C@H]3COC(=O)NCCNC(=O)CC[C@H](NC(=O)c3ccc(NCc4cnc5nc(N)[nH]c(=O)c5n4)cc3)C(=O)O)cc21 (stereo partly shown) [B-complex 10] | 62 nM | 
5 |  |  | [Cl-].[Na+] [table salt] |  | 3000 mg/kg

Source: US11884687B2, “Boronated multifunctional targeting drug conjugates, their uses and methods for their preparation” (Hovione Scientia Limited, priority 2017, dated 2024)
